# Reference: BindingDB's records for doi:10.1021/jm00124a025 (Smith Kline & French Laboratories, 1989)
# Biological target: Vasopressin V2 receptor (Canis lupus familiaris)
# Experiment: Binding affinity of compound towards Vasopressin receptor by binding [3H]LVP to dog renal medullary preparation.
row,Structure (SMILES),Ki
1,"CCOc1ccc(C[C@@H]2NC(=O)CC3(CCC(C)CC3)SSC[C@H](C(=O)N[C@@H](CCCN=C(N)N)C(=O)N[C@@H](CCCN=C(N)N)C(N)=O)NC(=O)[C@H](CC(N)=O)NC(=O)[C@H](C(C)C)NC(=O)[C@H](Cc3ccccc3)NC2=O)cc1 (some centres not stated) [19-Benzyl-13-carbamoylmethyl-22-(4-ethoxy-benzyl)-16-isopropyl-3-methyl-12,15,18,21,24-pentaoxo-7,8-dithia-11,14,17,20,23-pentaaza-spiro[5.19]pentacosane-10-carboxylic acid [1-(1-carbamoyl-4-guanidino-butylcarbamoyl)-4-guanidino-butyl]-amide]",0.7 nM
2,"CCOc1ccc(C[C@@H]2NC(=O)CC3(CCCCC3)SSC[C@H](C(=O)N[C@@H](CCCN=C(N)N)C(=O)N[C@@H](CCCN=C(N)N)C(N)=O)NC(=O)[C@@H](CC(N)=O)NC(=O)[C@H](C(C)C)NC(=O)[C@@H](Cc3ccccc3)NC2=O)cc1 [19-Benzyl-13-carbamoylmethyl-22-(4-ethoxy-benzyl)-16-isopropyl-12,15,18,21,24-pentaoxo-7,8-dithia-11,14,17,20,23-pentaaza-spiro[5.19]pentacosane-10-carboxylic acid [1-(1-carbamoyl-4-guanidino-butylcarbamoyl)-4-guanidino-butyl]-amide]",0.5 nM
